Laboratory results: US20200121812A1 (Teva Pharmaceuticals International GmbH, priority 2015, published 2020)

Tests used:
[1] = cited from earlier work
6-OHDA lesioned rats = settings: cited from earlier work; for effectiveness on motor performance compared to L-DOPA: as disclosed in WO2014/122184A1
[2] = system: striatum (extracellular L-DOPA, DA and metabolites); assay: Microdialysis in Wistar Rats (striatal dialysate levels after COMTi pretreatment); assay type: in vivo; settings: COMTi 30 mg/kg p.o. 2 hours before SD-1077/Carbidopa 50/25 mg/kg p.o.; FIG. 4
[3] = system: advanced PD patients with motor fluctuations; assay: Clinical trial of opicapone add on to deuterated levodopa/carbidopa; assay type: in vivo, human; settings: add on opicapone 20 mg once daily, 12 weeks; expected
striatal dopamine = settings: cited from earlier work; for increase and prolongation of the output of striatal dopamine: WO2004/056724 and WO2007/093450
Parkinson models = settings: cited from earlier work
dopamine in the striatum = assay: Microdialysis in Sprague-Dawley rats; assay type: in vivo
[4] = cited from earlier work; remark: listed apart in the source
[5] = opicapone before levodopa (sequential dosing) compared to concomitant administration, US2014/0045900A1
[6] = plus carbidopa, compared to conventional levodopa plus carbidopa

Which hepatotoxicity ([1]; after market launch) does the source give for `Cc1ccc(C(=O)c2cc(O)c(O)c([N+](=O)[O-])c2)cc1` [tolcapone] here?
Its hepatotoxicity is “several cases of hepatotoxicity”.

And the “crossing of the BBB” value ([1]; in vivo)?
The value was “crosses the BBB”.

Which “effectiveness on motor performance compared to L-DOPA” value (6-OHDA lesioned rats) does the source give for “L-2-amino-2,3,3*-trideutero-3-(3,4-dihydroxyphenyl) propionic acid [Composition 1]” here?
Its value is “as effective as L-DOPA at lower doses”.

What about the “observed dyskinesia side effects relative to levodopa” value (6-OHDA lesioned rats; rat model of Parkinson's disease, at equivalent motor effect, WO2014/122184A1) of the same molecule?
The value was 50%.

What about the “dose yielding equivalent motor effect to levodopa, as % of the levodopa dose” value (6-OHDA lesioned rats; rat model of Parkinson's disease, WO2014/122184A1) of the same molecule?
The value was 35%.

With `Cc1c(Cl)c(C)[n+]([O-])c(Cl)c1-c1noc(-c2cc(O)c(O)c([N+](=O)[O-])c2)n1` [opicapone, 2,5-dichloro-3-[5-(3,4-dihydroxy-5-nitrophenyl]-1,2,4-oxadiazol-3-yl)-4,6-dimethylpyridine 1-oxide] as the molecule, how does the “extracellular striatal levels of deuterated L-DOPA (SD-1077)” value [2] read?
Its value is “more effective than entacapone”.

What about the “increase of ON time without dyskinesia compared to placebo” value [3] of the same molecule?
Its value is “about 40 min”.

What about the levodopa exposure ([1]; Parkinson's patients) of the same molecule?
Its levodopa exposure is “increase levodopa exposure in a dose-dependent manner”.

What about the motor outcomes ([1]; Parkinson's patients) of the same molecule?
Its motor outcomes is “improve”.

And the “food effect on rate and extent of absorption” value ([1]; US2014/0045900A1)?
Its value is “marked food effect”.

And the “levodopa Cmax” value [1, 5]?
The value was “decrease”.

What about the levodopa systemic exposure [1, 5] of the same molecule?
The levodopa systemic exposure was “increase”.

Which results are given for `[2H]C([2H])(c1ccc(O)c(O)c1)[C@]([2H])(N)C(=O)O` [α,β,β-D3-L-DOPA, L-2-Amino-2,3,3-trideutero-3-(3,4-dihydroxyphenyl) propionic acid]?
effectiveness on motor performance compared to L-DOPA (6-OHDA lesioned rats): as effective as L-DOPA at lower doses; increase and prolongation of the output of striatal dopamine (striatal dopamine): significantly more than L-DOPA; striatal dopamine levels compared to L-DOPA (striatal dopamine; in vivo): higher longer-lasting; equi-effective dose compared to L-DOPA (Parkinson models; in vivo): about 60%; motor activity compared to L-DOPA (Parkinson models; several Parkinson models, Malmlof et al.): improved

With `N[C@@H](Cc1ccc(O)c(O)c1)C(=O)O` [levodopa] as the molecule, how does the “dopamine in the extracellular space in the striatal brain tissue” value (dopamine in the striatum; plus carbidopa) read?
The value was “increase”.

And the half life ([4]; in vivo)?
Its half life is “about 1.5 hours”.

And the “share of an oral dose that reaches the brain” value ([4]; oral)?
The value was 1%.

What does the source list for `[2H][C@@H](c1ccc(O)c(O)c1)[C@]([2H])(N)C(=O)O` [α,β-D2-L-DOPA, S/S-2-amino-2,3-dideutero-3-(3,4-dihydroxyphenyl) propionic acid]?
effectiveness on motor performance compared to L-DOPA (6-OHDA lesioned rats): as effective as L-DOPA at lower doses; increase and prolongation of the output of striatal dopamine (striatal dopamine): significantly more than L-DOPA; striatal dopamine concentrations (striatal dopamine; compared with L-DOPA and α,β,β-D3-L-DOPA): highest

With `[2H]C([2H])(c1ccc(O)c(O)c1)[C@]([2H])(N)C(=O)O` [Deulevodopa] as the molecule, how does the central bioavailability (dopamine in the striatum; [6]) read?
Its central bioavailability is “increased”.

What about the “half life of dopamine” value (dopamine in the striatum; [6]) of the same molecule?
The value was “about doubled”.

For `[2H]C([2H])(c1ccc(O)c(O)c1)[C@]([2H])(N)C(=O)O` [d3-L-DOPA], which “bioavailability of d3-dopamine in the striatum” value (dopamine in the striatum; 50 mg/kg ip, rats, compared to conventional L-DOPA (50 mg/kg ip), FIG. 1) is on record?
Its value is “significantly increased”.
